Publication PMC4403932 (Journal of Medicinal Chemistry, 2015)
“And” between values parts separate entries of the source, which are not always exact repeats. Equal entries are not always repeated. “Also recorded” adds a separate entry of the source. Where two headings read alike, the source gives them in different places.

Columns and labels:
BRD4(2) = biological target: T1, BRD4(2) (Homo sapiens, UniProt O60885); experiment: Protein stability (thermal) shift assay, BRD4(2); type: binding; details: compound 10 μM, protein 2 μM; average of triplicate
T1 construct: made in house

BRD9 bromodomain = biological target: T2, BRD9 bromodomain (Homo sapiens, UniProt Q9H8M2); experiment: NanoBRET assay, NanoLuc-BRD9 bromodomain / histone H3.3-HaloTag in HEK293 cells; type: cell-based; details: 0.005-33 μM, 18 h, read-out: cellular (apparent) IC50, displacement of NanoLuc-BRD9 bromodomain from histone H3.3
T2 construct: Q9H8M2-BRD amino acids 120–240; expressed in transfected cells; host or cells: HEK293
T2 sequence (Q9H8M2 120-240): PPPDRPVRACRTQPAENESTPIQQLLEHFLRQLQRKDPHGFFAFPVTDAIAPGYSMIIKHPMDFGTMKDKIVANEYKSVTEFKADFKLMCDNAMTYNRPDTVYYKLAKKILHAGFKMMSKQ
Description: (§1) Twenty hours post-transfection 2 × 10^4 cells were trypsinized, washed with PBS, and exchanged into media containing phenol red-free DMEM, 10% FBS in the absence (control sample), or the presence (experimental sample) of 100 nM NanoBRET 618 fluorescent ligand (Promega). Cell density was adjusted to 2 × 10^5 cells/mL and then replated in a 96-well assay white plate (Corning Costar no. 3917). At the time of replating compound 7d or 11 were added at a final concentration spanning from 0.005 to 33 μM and the plates were incubated for 18 h at 37 °C in the presence of 5% CO2. NanoBRET substrate (Promega) was added to both control and experimental samples at a final concentration of 10 μM. Readings were performed within 5 min using the CLARIOstar reader (BMG Lifetechnologies) equipped with 450/80 nm bandpass and 610 nm long-pass filters. A corrected BRET ratio was calculated and is defined as the ratio of the emission at 610 nm/450 nm for experimental samples (i.e., those treated with NanoBRET fluorescent ligand) subtracted by and the emission at 610 nm/450 nm for control samples (not treated with NanoBRET fluorescent). BRET ratios are expressed as milliBRET units (mBU), where 1 mBU corresponds to the corrected BRET ratio multiplied by 1000.

BRD9 = biological target: T3, BRD9 (Homo sapiens, UniProt Q9H8M2); experiment: Protein stability (thermal) shift assay, BRD9; type: binding
T3 construct: made in house
T3 sequence (Q9H8M2 136-240 limits assumed): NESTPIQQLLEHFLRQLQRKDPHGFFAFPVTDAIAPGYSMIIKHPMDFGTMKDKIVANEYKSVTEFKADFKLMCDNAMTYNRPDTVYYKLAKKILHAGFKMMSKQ

CREBBP = biological target: T4, CREBBP (Homo sapiens, UniProt Q92793); experiment: Protein stability (thermal) shift assay, CREBBP; type: binding; details: compound 10 μM, protein 2 μM; average of triplicate; read-out: ΔTm Shift, CREBBP
T4 construct: small thermal shits (1.0–1.3 °C) for the bromodomain of CREBBP; made in house

BRD2(1) = biological target: T5, BRD2(1) (Homo sapiens, UniProt P25440); experiment: Isothermal titration calorimetry, BRD2(1); type: binding; details: for Kd / TΔS / ΔG / N (stoichiometry) / ΔHobs: ITC, 15 °C; for Kd: 50 mM HEPES pH 7.5, 150 mM NaCl, triplicate; for Kd / N (stoichiometry) / ΔHobs: reverse titration; for LE (ligand efficiency): LE = ΔG/N, N number of non-hydrogen atoms
T5 construct: Fragments were tested in a thermal shift assay against bromodomains of the BET subfamily; made in house
Description: Experiments were carried out on an ITC200 titration microcalorimeter from MicroCal, LLC (GE Healthcare) equipped with a Washing module, with a cell volume of 0.2003 mL, and a 40 μL microsyringe. Experiments were carried out at 15 °C while stirring at 1000 rpm, in ITC buffer (50 mM HEPES, pH 7.5 (at 25 °C), 150 mM NaCl). The microsyringe was loaded with a solution of the protein sample (300−740 μM protein for BRD9 and BRD4(1), respectively, in ITC buffer) and was carefully inserted into the calorimetric cell which was filled with an amount of the ligand (0.2 mL, 20–25 μM in ITC buffer). The system was first allowed to equilibrate until the cell temperature reached 15 °C, and an additional delay of 60 s was applied. All titrations were conducted using an initial control injection of 0.3 μL followed by 38 identical injections of 1 μL with a duration of 2 s (per injection) and a spacing of 120 s between injections. The titration experiments were designed in such a fashion as to ensure complete saturation of the proteins before the final injection. The heat of dilution for the proteins was independent of their concentration and corresponded to the heat observed from the last injection, following saturation of ligand binding, thus facilitating the estimation of the baseline of each titration from the last injection. The collected data were corrected for protein heats of dilution (measured on separate experiments by titrating the proteins into ITC buffer) and deconvoluted using the MicroCal Origin software supplied with the instrument to yield enthalpies of binding (ΔH) and binding constants (KB) in the same fashion as that previously described in detail by Wiseman and co-workers.[66] Thermodynamic parameters were calculated using the basic equation of thermodynamics (ΔG = ΔH – TΔS = −RT ln KB, where ΔG, ΔH, and ΔS are the changes in free energy, enthalpy, and entropy of binding, respectively). In all cases a single binding site model was employed, supplied with the MicroCal Origin software package.

BRDT(2) = biological target: T6, BRDT(2) (Homo sapiens, UniProt Q58F21); experiment: Protein stability (thermal) shift assay, BRDT(2); type: binding; details: compound 10 μM, protein 2 μM; average of triplicate; read-out: ΔTm Shift, BRDT(2)
T6 construct: made in house

full length BRD4 = biological target: T7, full length BRD4 (Homo sapiens, UniProt O60885); experiment: NanoBRET assay, NanoLuc-BRD4 full-length / histone H3.3-HaloTag in HEK293 cells; type: cell-based; details: up to 33 μM, 18 h
T7 construct: NanoLuc-fused full length BRD4 (UniProt code O60885); expressed in transfected cells; host or cells: HEK293
Description: as §1

T5 sequence (P25440 74-180 limits assumed): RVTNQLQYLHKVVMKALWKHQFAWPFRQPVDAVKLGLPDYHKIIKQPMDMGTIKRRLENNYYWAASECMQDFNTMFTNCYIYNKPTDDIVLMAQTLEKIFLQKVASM
T4 sequence (Q92793 1085-1192 limits assumed): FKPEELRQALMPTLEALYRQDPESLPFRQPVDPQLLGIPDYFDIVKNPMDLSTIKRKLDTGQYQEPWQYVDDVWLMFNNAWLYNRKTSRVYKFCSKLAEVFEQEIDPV

| SMILES | ΔTm at 10 µM (BRD4(2)) [°C] | IC50 (BRD9 bromodomain) | ΔTm at 10 µM (BRD9; compound 10 μM, protein 2 μM, average of triplicate, read-out: ΔTm Shift, BRD9) [°C] | ΔTm at 10 µM (CREBBP) [°C] | Kd (BRD2(1)) [nM] | TΔS (BRD2(1)) [kcal/mol] | ΔG (BRD2(1)) | N (stoichiometry) (BRD2(1)) | ΔHobs (BRD2(1)) | LE (ligand efficiency) (BRD2(1)) | ΔTm at 10 µM (BRDT(2)) [°C] | displacement of full-length BRD4 from histone H3.3 (in words) (full length BRD4) | ΔTm at 10 µM (BRD9; thermal shift, 10 μM compound, 2 μM protein, read-out: ΔTm) [°C] |
| --- | --- | --- | --- | --- | --- | --- | --- | --- | --- | --- | --- | --- | --- |
| COc1ccc(Br)cc1-c1nc(N)nc2[nH]cnc12 [Compound 7d, 2-Amino-6-(5-bromo-2-methoxyphenyl)-9H-purine] | 0.6 | 3500 nM | 3.6 | 2.9 | 4440 ± 162 | 0.44 | –7.06 kcal/mol | 0.99 ± 0.011 | –6.62 ± 0.09 kcal/mol | 0.37 | 1.8 | fail to elicit the same effect; also recorded: not completely displaced; also recorded: failing to displace | – |
| Nc1nc(-c2cc(Br)cc3c2OCC3)c2nc[nH]c2n1 [Compound 11, 2-Amino-6-(5-bromo-2,3-dihydrobenzo[b]furan-7-yl)-9H-purine] | 2.8 | 480 nM and 477 nM | – | 3.6 | 1420 ± 60 | 2.06 | –7.71 kcal/mol | 1.02 ± 0.006 | –5.65 ± 0.04 kcal/mol | 0.39 | 4 | fail to elicit the same effect; also recorded: not completely displaced; also recorded: failing to displace | 6.5 |
